# From patent US20250264397A1, “Light-field Flow Cytometer” (Georgia Tech Research Corporation, priority 2024, published 2025)
# System: Jurkat cells
# Assay: Jurkat cell apoptosis induced by staurosporine (STS) treatment, imaged by light-field flow cytometry (LFC)
# Format: cell-based, human
# Details: 1-μM STS
# Description: Jurkat cell apoptosis induced by staurosporine (STS) treatment and staining. Jurkat T cells (e.g., #88042803, Sigma-Aldrich) were cultured in RPMI with 10% FBS and 1% Pen-Strep as a modified RPMI medium at 37° C. and in a 5% CO2 environment. On the imaging day, 1 μM of STS was added to 4 cell dishes, incubating for 30, 60, 120, and 300 min, respectively, at 37° C. The following procedures for preparing cells in the 4 dishes were the same. After the treatment, cells were centrifuged (e.g., 500× g, 6 min, 37° C.) and resuspended into the modified RPMI medium. After two rounds of centrifuge-washing, cells were resuspended into 6 mL of modified RPMI medium. For fluorescence labeling, 250 nM of SYTO16 green stains were added to the culture dish, and the cells were incubated for 1 hour. At the halfway of incubation (30 min), 150 nM of Mito Tracker Deep Red FM stains were added to the culture dish. After another 30 min, cells were centrifuged (e.g., 500× g, 6 min, 37° C.) and resuspended into 6 mL of the 4% PFA fixation buffer. Cells were fixed at room temperature for 12 min. After fixation, cells were centrifuged (800× g, 6 min, room temperature) and resuspended into PBS twice. Finally, cells were stored in PBS for imaging flow cytometry.
# Imaging morphological changes in staurosporine-treated Jurkat cells. […]
smiles,measurement,setting,value
CN[C@@H]1C[C@H]2O[C@@](C)([C@@H]1OC)n1c3ccccc3c3c4c(c5c6ccccc6n2c5c31)C(=O)NC4 [Staurosporine],cells showed apoptotic nuclei,after 5 h of treatment,over 53%
same,Jurkat cell nuclear morphology,"with the treatment period increased (30, 60, 120, 300 min)",reduced volumes and fragmented micronuclei
